Values of other authors, collected in US6420361B1, “Soil pesticide” (priority 1999, dated 2002).

Question: For `CN1CSC(=S)N(C)C1` [TDTT, tetrahydro-3,5-dimethyl-2H-1,3,5-thiadiazine-2-thione], which “Solubility and stability in commonly used agricultural solvents or carriers” value is on record?
Answer: The value was “not very soluble or stable”.

Question: What about the “Concentration limit in liquid formulation” value (applied as a liquid formulation) of the same molecule?
Answer: Its value is “less than 15 % by weight”.
